The values that follow come from publication PMC4541407 (2015).

A value given as a limit tells only on which side of the number the result lay.

In test [1] the test system is c-MYC (dual labelled) (DNA, G4) TGAGGGTGGGTAGGGTGGGTAA
Nature of the test: FRET melting.

Test [2] has as its system c-MYC (DNA, G4) TGAGGGTGGGTAGGGTGGGTAA
Nature of the test: fluorescence titration. Conditions: 100 mM Tris-HCl pH 7.4, 25 °C; for KD: 100 mM K+, 1.0 µM ligand, DNA 0-6 equiv.

The test system of test [3] is c-MYC (NMR oligonucleotide) (DNA, G4) TGAGGGTGGGTAGGGTGGGTAA
The experiment in a line: 1H NMR imino titration.

Test [4] has as its system ds DNA (dual labelled) (DNA, duplex) CCAGTTCGTAGTAACCC/GGGTTACTACGAACTGG
The experiment in a line: FRET melting. Conditions: 50 mM K+, 50 mM potassium cacodylate pH 7.4.

For test [5], the system named is c-KIT1 (DNA, G4) GGGAGGGCGCTGGGAGGGAGGG
The experiment in a line: fluorescence titration. Conditions: 100 mM K+; 100 mM Tris-HCl pH 7.4, 25 °C; 1.0 µM ligand, DNA 0-6 equiv.

The subject of test [6] is c-KIT1 (dual labelled) (DNA, G4) GGGAGGGCGCTGGGAGGGAGGG
The experiment in a line: FRET melting.

In test [7] the test system is c-KIT2 (dual labelled) (DNA, G4) GGGCGGGCGCGAGGGAGGGG
Nature of the test: FRET melting.

For test [8], the system named is ds DNA (DNA, duplex) CCAGTTCGTAGTAACCC/GGGTTACTACGAACTGG
Nature of the test: fluorescence titration. The following applies: 100 mM K+; 100 mM Tris-HCl pH 7.4, 25 °C; 1.0 µM ligand, DNA 0-6 equiv.

For test [9], the system named is c-KIT2 (DNA, G4) GGGCGGGCGCGAGGGAGGGG
Nature of the test: fluorescence titration. Conditions: 100 mM K+; 100 mM Tris-HCl pH 7.4, 25 °C; 1.0 µM ligand, DNA 0-6 equiv.

[10] abbreviates: 50 mM K+, 50 mM potassium cacodylate pH 7.4, 1.0 µM ligand.

On to `CN(C)CCCNC(=O)c1ccc(-n2cc(-c3ccc4c(c3)c3cc(-c5cn(-c6ccc(C(=O)NCCCN(C)C)cc6)nn5)ccc3n4CCCN(C)C)nn2)cc1`, for which the ΔTm in test [1] (50 mM K+, 50 mM potassium cacodylate pH 7.4, 100 nM ligand, maximum measurable shift) came to 22.7 ± 1.4 K; in test [6] (50 mM K+, 50 mM potassium cacodylate pH 7.4, 750 nM ligand, maximum measurable shift), 39.4 ± 2.5 K; in test [7] (50 mM K+, 50 mM potassium cacodylate pH 7.4, 500 nM ligand, maximum measurable shift) it was 23.2 ± 1.6 K. Besides, the binding result in test [1] (no added K+, MQ water pH 7.4, saturation at 250 nM ligand) is given as “yes”; in [2] (no added K+, 5.5-fold enhancement, 25 nm blue shift, Kd n.d.), “yes”; in [3] (100 mM K+, 25 mM Tris-HCl pH 7.4, 298 K, 100 µM DNA, binds minor conformation), “yes”; in test [3] (no added K+, 25 mM Tris-HCl pH 7.4, 298 K, 100 µM DNA, binds minor conformation), “yes”; in [4] (up to 1.0 µM ligand), “no”; in [6] (no added K+, MQ water pH 7.4, saturation at 1 µM ligand), “yes”. Besides, the binding entry in test [7] (no added K+, MQ water pH 7.4, saturation at 750 nM ligand) was “yes”. The equilibrium dissociation constant (KD) in [2] was determined as 300 ± 15 nM; in test [5] it was 1380 ± 70 nM; in [9], 1370 ± 60 nM. Also, the dissociation constant (Kd) in [8] is above 10000 nM.

For `CN(C)CCCn1c2ccc(-c3cn(-c4ccc(N)cc4)nn3)cc2c2cc(-c3cn(-c4ccc(N)cc4)nn3)ccc21`, the binding entry is “yes” in test [1] (setting [10]) and “yes” in test [3] (100 mM K+, 25 mM Tris-HCl pH 7.4, stabilizes minor conformation(s)). Also, the KD in [2] is above 20000 nM.

Consider `C#Cc1ccc2c(c1)c1cc(C#C)ccc1n2CCCN(C)C`, for which the binding result in test [1] (setting [10]), in test [4] (1.0 µM ligand), in test [6] (setting [10]) and in [7] (setting [10]) was “no” throughout.
